Here are results for 2 compounds from patent publication US20090325891A1, “Cartilage regeneration-promoting agent” (EISAI FOOD & CHEMICAL CO., LTD., priority 2006, published 2009).

Where “and” joins values, the source holds several entries; their conditions need not be identical. Equal values may be shown once.

Assay [1] concerns lateral vastus muscles and femoral biceps muscles. The assay is described as follows: Muscle weight ratio (injured side vs opposite side) in rabbit articular cartilage injury model. It counts as in vivo. The following applies: for Muscle weight ratio Femoral biceps muscle, Mean / Muscle weight ratio Lateral vastus muscle, Mean: group mean, 6 rabbits; for Muscle weight ratio Femoral biceps muscle / Muscle weight ratio Lateral vastus muscle: individual rabbits, injured side vs opposite side. How it is done: The rabbit articular cartilage injury model was prepared based on the method of Hashida et. al. (See, Macromolecular Bioscience, 3, (2003) 596-603), and Tamai et. al. (See, Carbohydrate Polymers, 48, (2002) 369-378, and Carbohydrate Polymers, 54, (2003) 251-262).
Initially, each animal was anesthetized by injecting pentobarbital sodium (40 mg/kg) intraperitoneally. Next, hairs at the knee joint of the left hind limb of the animal were clipped and disinfected with 0.5% chlorhexidine gluconate solution and 70% ethanol solution. Then, an incision was made on the skin on the lateral portion of the knee joint from the central part of the femur toward the tibial tuberosity. The articular capsule was exposed and incised. Further, the knee joint was exposed completely by dislocating the patella toward the medial side. Three holes of 2 mm size in diameter and 4 mm in depth were made by using a handdrill one at the medial trochlear ridge and two at the trochlear sulcus of the femur. The incised portion was washed with sterile saline solution and the articular capsule, and at the same time, the subcutaneous tissues and the skin were sutured with a synthetic absorbent thread and with nylon thread, respectively. During one week after the operation, the sutured portion of the skin was disinfected by povidone-iodine once a day and 10 mg/kg of oxytetracycline hydrochloride was subcutaneously administered twice a day.
After the formation of injury to articular cartilage, for the HT group, the product containing 20% by mass of hydroxytyrosol obtained in Production Example 1 was dissolved in tap water and administered using a water bottle at a rate of 500 mg/kg (100 mg/kg of hydroxytyrosol) per day for 21 days. After making sure that all of the water containing the drug was taken in, rabbits were fed with sterile tap water. The control was fed with sterile tap water ad libitum.
For each animal, left and right lateral vastus muscles and femoral biceps muscles were collected, and weights were measured. The muscle weight ratio was calculated by comparing the side, in which cartilage injury was made, with the opposite side, and Student's t-test was performed between the control group and the HT group.
In the same way as in Example 1, the cartilage regeneration-promoting effects were investigated with respect to hydroxytyrosol (100 mg/kg per day, HT group) and with respect to glucosamine hydrochloride (800 mg/kg per day, hereinafter, GAH group) for comparison. The control group was set in the same way as in Example 1.

Assay [2] deals with Rabbit chondrocytes. The assay is described as follows: Hyaluronic acid production in rabbit chondrocytes. In kind it is cell-based. The following applies: culture supernatant, per number of viable cells; 12 days culture; hydroxytyrosol 100 ng/ml, glucosamine hydrochloride 4 μg/ml. The protocol: The promoting effects of hydroxytyrosol and glucosamine hydrochloride on the production of glycosaminoglycan and on the production of hyaluronic acid in chondrocytes were evaluated. Rabbit chondrocytes (rabbit articular chondrocytes in primary culture, F-8, Cell Garage Co., Ltd.) were washed with phosphate buffered saline solution, and then cells were released with 0.05% trypsin-EDTA solution. The released chondrocytes were cultured in DMEM medium containing 10% FBS, 100 U/ml penicillin, 100 μg/ml streptomycin, 100 μM trisodium ascorbyl-2-phosphate (available from SIGMA-ALDRICH Corp.), and 25 mM HEPES (available from Invitrogen Corporation) at 37° C. in a humidified condition with 5% CO2. […] For each group after 12 days culture, the number of viable cells was determined by WST assay. The percentage of the amount of glycosaminoglycan or hyaluronic acid produced by each experimental group, relative to the control group, was calculated according to the following formula: ((amount produced by each experimental group/number of cells of each experimental group)×100)/(amount produced by the control group/number of cells of the control group). The supernatant of cultured cells of each group was collected, and the amount of hyaluronic acid produced was measured using a measurement kit (hyaluronic acid measurement kit, available from Seikagaku Corporation).

Assay [3] has as its system Rabbit chondrocytes. The assay is described as follows: Glycosaminoglycan production in rabbit chondrocytes. In kind it is cell-based. The following applies: per number of viable cells; 12 days culture; hydroxytyrosol 100 ng/ml, glucosamine hydrochloride 4 μg/ml. How it is done: The promoting effects of hydroxytyrosol and glucosamine hydrochloride on the production of glycosaminoglycan and on the production of hyaluronic acid in chondrocytes were evaluated. Rabbit chondrocytes (rabbit articular chondrocytes in primary culture, F-8, Cell Garage Co., Ltd.) were washed with phosphate buffered saline solution, and then cells were released with 0.05% trypsin-EDTA solution. The released chondrocytes were cultured in DMEM medium containing 10% FBS, 100 U/ml penicillin, 100 μg/ml streptomycin, 100 μM trisodium ascorbyl-2-phosphate (available from SIGMA-ALDRICH Corp.), and 25 mM HEPES (available from Invitrogen Corporation) at 37° C. in a humidified condition with 5% CO2. […] For each group after 12 days culture, the number of viable cells was determined by WST assay. The percentage of the amount of glycosaminoglycan or hyaluronic acid produced by each experimental group, relative to the control group, was calculated according to the following formula: ((amount produced by each experimental group/number of cells of each experimental group)×100)/(amount produced by the control group/number of cells of the control group). The amount of glycosaminoglycan produced by the above-mentioned cultured cells was measured using a measurement kit (acid mucopolysaccharide quantification kit, available from Cell Garage Co., Ltd.).

The mark [4] stands for this setting: Example 2, hydrochloride, female rabbits.
Setting [5] is: Example 2, hydrochloride, male rabbits.

For the compound `Cl.N[C@H]1C(O)O[C@H](CO)[C@@H](O)[C@@H]1O` (stereo partly shown) [GAH group, glucosamine hydrochloride, reference compound], in assay [1] (Example 2), the “muscle weight of the femoral biceps muscle (in words)” value is given as “marked decrease” and the “muscle weight of the lateral vastus muscle (in words)” value is “slight decrease”. For the same compound, the “Muscle weight ratio Femoral biceps muscle, Mean” value in assay [1] (Example 2, control 83.80) is 83.62%. Besides, the “Muscle weight ratio Lateral vastus muscle, Mean” value in assay [1] (Example 2, control 91.91) is recorded as 92.03%. Besides, in assay [1] (setting [4]), the “Muscle weight ratio Femoral biceps muscle” value was 78.13% and 86.21% and 65.10%; the “Muscle weight ratio Lateral vastus muscle” value is 82.24% and 96.46% and 90.85%. In addition, in assay [1] (setting [5]), the “Muscle weight ratio Femoral biceps muscle” value is 92.37% and 86.12% and 93.81%; the “Muscle weight ratio Lateral vastus muscle” value was 98.02% and 89.59% and 94.99%. The “amount of hyaluronic acid produced compared to the control group” value in the assay on Rabbit chondrocytes [2] is reported as 127.4%. In the assay on Rabbit chondrocytes [3], the “amount of glycosaminoglycan produced compared to the control group” value is 147.0%.
As for `OCCc1ccc(O)c(O)c1` [HT group, 2-(3,4-Dihydroxyphenyl)ethanol], the “muscle weight of the femoral biceps muscle (in words)” value in assay [1] (Example 1) and in assay [1] (Example 2) was “little decrease” in each case. Further, the “muscle weight of the lateral vastus muscle (in words)” value in assay [1] (Example 1) was “decreased slightly”; in assay [1] (Example 2), “little decrease”. In addition, the “Muscle weight ratio Lateral vastus muscle, Mean” value stood at 95.93% in assay [1] (Example 1, control 88.84) and 98.48% in assay [1] (Example 2, control 91.91). The “Muscle weight ratio Femoral biceps muscle, Mean” value in assay [1] (Example 1, control 88.99) worked out at 100.08%; in assay [1] (Example 2, control 83.80), 100.59%. The “Muscle weight ratio Femoral biceps muscle” value in assay [1] (Example 1, female rabbits) is 100.18% and 98.45% and 93.46%; in assay [1] (Example 1, male rabbits), 94.80% and 106.36% and 107.22%; in assay [1] (Example 2, female rabbits) it was 90.91% and 111.86% and 93.42%; in assay [1] (Example 2, male rabbits), 101.37% and 104.66% and 101.31%. In addition, the “Muscle weight ratio Lateral vastus muscle” value in assay [1] (Example 1, female rabbits) is 105.30% and 96.92% and 80.89%; in assay [1] (Example 1, male rabbits), 93.29% and 95.10% and 104.10%; in assay [1] (Example 2, female rabbits), 94.98% and 98.56% and 92.43%; in assay [1] (Example 2, male rabbits), 84.93% and 111.10% and 108.90%. Besides, in the assay with Rabbit chondrocytes [2], the “amount of hyaluronic acid produced compared to the control group” value amounted to 82.9%. Moreover, in the assay with Rabbit chondrocytes [3], the “amount of glycosaminoglycan produced compared to the control group” value came out at 119.8%.
